The species named for one experiment is Mus musculus. The experiment is described as follows: Analgesic activity in mice by mouse phenylquinone writhing assay relative to aspirin. The format is functional. In general terms: An intraperitoneal irritant provokes the stretching counted in writhing tests.
For the next experiment, the species on record is Rattus norvegicus. Kind of experiment: Inhibition of carrageenan-induced inflammation of rat paw relative to phenylbutazone. Type of experiment: functional. (In general: Carrageenan injected into the paw causes an acute inflammation.)

With `CC(C(=O)O)c1ccc2c(=O)c3ccccc3ccc2c1` (centres undefined), the Activity in the experiment listed under Mus musculus was 20; in the experiment listed under Rattus norvegicus, 68.
For `O=C1Cc2ccc3c(c2O1)CCc1ccccc1C3=O` the same measures were ~1 and 3.
With `O=C(O)Cc1cc(O)c2c(c1)CCc1ccccc1C2=O`, the Activity is given as 4 in the experiment listed under Mus musculus and ~20 in the experiment listed under Rattus norvegicus.
On the same counts, the results for `O=C(O)Cc1ccc2c(c1)CCc1cccc(O)c1C2=O` are “>=0.4” and <0.2.
For `O=C(O)Cc1ccc2c(c1)CCc1ccc(O)cc1C2=O` the same measures were ~0.2 and <0.2.
On the same counts, the results for `O=C(O)Cc1ccc2c(c1)CCc1ccccc1C2=O` are 1.5 and 7.
Take `O=C(O)Cc1ccc2c(c1O)CCc1ccccc1C2=O`: the Activity in the experiment listed under Mus musculus is given as ~8; in the experiment filed under Rattus norvegicus, 15.
On the same counts, the results for `O=C(O)Cc1ccc2c(c1)CCc1cc(O)ccc1C2=O` are ~0.6 and ~0.4.
On the same counts, the results for `CC(C(=O)O)c1cc(O)c2c(=O)c3ccccc3ccc2c1` (centres undefined) are ~6 and ~30.
For `O=C(O)Cc1cc(O)c2c(=O)c3ccccc3ccc2c1` the same measures were ~1 and 5.
Turning to `O=C(O)Cc1ccc2c(=O)c3ccccc3ccc2c1`, the figures for the Activity in the experiment listed under Mus musculus and in the experiment filed under Rattus norvegicus were 2 and 6, respectively.
For `CC(C(=O)O)c1cc(O)c2c(c1)CCc1ccccc1C2=O` (centres undefined) the same measures were 4 and ~60.
On to `O=C(O)c1ccccc1Nc1cccc(C(F)(F)F)c1` [FLUFENAMIC ACID], for which the Activity in the experiment listed under Mus musculus is <0.4; in the experiment listed under Rattus norvegicus it was ~6.
For `COc1ccc2c(c1)c(CC(=O)O)c(C)n2C(=O)c1ccc(Cl)cc1` [INDOMETHACIN] the same measures were 60 and 16.
For `CC(C(=O)O)c1cccc(C(=O)c2ccccc2)c1` (centres undefined) [KETOPROFEN] the same measures were 60 and 9.
For `O=C(O)Cc1ccc2c(c1)OCc1ccccc1C2=O` [OXEPINAC] the same measures were 4 and ~15.
Turning to `O=C(O)Cc1ccc2c(c1)SCc1ccccc1C2=O` [TIOPINAC], the Activity in the experiment filed under Mus musculus came out at 14; in the experiment filed under Rattus norvegicus it was 40.

Values taken from ChEMBL document CHEMBL1123366, “Antiinflammatory and aldose reductase inhibitory activity of some tricyclic arylacetic acids” (J Med Chem, 1986).
